Test results from patent US20180141911A1, “Quinoline Derivatives for Diagnosis and Treatment of Alzheimer's Disease” (Northeastern University, priority 2015, published 2018).

Columns and labels:
[1] = test system: tau and Aβ aggregates; settings: post-mortem AD brain tissues; cited from earlier work
[2] = normal subjects, nonhuman primates; cited from earlier work

Structure (SMILES): Brc1cnc2c(OCc3ccccc3)cccc2c1
- melting point: 120 °C

Structure (SMILES): Oc1cccc2cccnc12 [8-Hydroxyquinoline]
- binding to tau and Aβ aggregates [1]: bind to both tau and Aβ aggregates

Structure (SMILES): Oc1cccc2ccc([18F])nc12 [[^18F]-CABS13, [^18F]-2-fluoro-8-hydroxyquinoline]
- brain penetration [2]: poor brain penetration
- conversion to a polar metabolite [2]: rapid, high conversion to a polar metabolite

Structure (SMILES): Oc1c(I)cc(Cl)c2cccnc12 [clioquinol]
- binding to tau and Aβ aggregates [1]: bind to both tau and Aβ aggregates
